Experiment [1] relates to SETVI. As to the kind of experiment: Pre-emergence action at 320 g/ha against SETVI. It is filed as in vivo, Setaria viridis. The following applies: Setaria viridis, 504 h, visual scoring after about 3 weeks vs untreated controls. Put shortly: (§1)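 Compounds were sprayed onto soil over sown seeds as emulsions or suspensions with 0.5% additive at a water rate of 600 l/ha. After about 3 weeks in the greenhouse, effect was rated visually as percent (100% = died).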

Experiment [2] deals with ECHCG. Kind of experiment: Post-emergence action at 320 g/ha against ECHCG. It is filed as in vivo, Echinochloa crus-galli. Conditions: dosage 320 g/ha, visual rating about 3 weeks after treatment vs untreated controls (100% = plants died). An excerpt: (§2) Accordingly, the compounds of the invention have good herbicidal action against a broad spectrum of weed grasses and broad-leaved weeds and are therefore suitable for controlling unwanted vegetation by the post-emergence method. • b) Seeds of monocotyledonous and dicotyledonous weeds and crop plants are placed in sandy loam in plastic or organic planting pots, covered with soil and cultivated in a greenhouse under controlled growth conditions. 2 to 3 weeks after sowing, the test plants are treated at the one-leaf stage. The compounds of the invention, formulated in the form of wettable powders (WP) or as emulsion concentrates (EC), are then sprayed onto the green parts of the plants as aqueous suspension or emulsion with addition of 0.5% additive at a water application rate of 600 l/ha (converted). After the test plants have been kept in the greenhouse under optimum growth conditions for about 3 weeks, the activity of the preparations is rated visually in comparison to untreated controls. For example, 100% activity=the plants have died, 0% activity=like control plants. Tables 39 to 49 below show the effects of selected compounds of the general formula (I) according to Tables 1 and 2 on various harmful plants and at an application rate corresponding to 320 g/ha, which were obtained by the experimental procedure mentioned above.

In experiment [3] the test system is LOLRI. As to the kind of experiment: Pre-emergence action at 320 g/ha against LOLRI. The class given is in vivo, Lolium rigidum. The following applies: Lolium rigidum, 504 h, visual scoring after about 3 weeks vs untreated controls. Put shortly:
as §1

For experiment [4], the system named is AMARE. Kind of experiment: Pre-emergence action at 320 g/ha against AMARE. The following applies: Amaranthus retroflexus, 504 h, visual scoring after about 3 weeks vs untreated controls. It is filed as in vivo, Amaranthus retroflexus. Put shortly: as §1
Experiment [5] has as its system ALOMY. As to the kind of experiment: Post-emergence action against ALOMY, 320 g/ha. The class given is in vivo, Alopecurus myosuroides. Conditions: dosage 320 g/ha, visual rating about 3 weeks after treatment vs untreated controls (100% = plants died).
Source text: as §2

For experiment [6], the system named is POLCO. As to the kind of experiment: Post-emergence action at 320 g/ha against POLCO. It is filed as in vivo, Fallopia convolvulus (Polygonum convolvulus). The following applies: Fallopia convolvulus, 504 h, visual rating about 3 weeks after treatment vs untreated controls.
Source text: as §2

For experiment [7], the system named is DIGSA. Kind of experiment: Post-emergence action at 320 g/ha against DIGSA. It is filed as in vivo, Digitaria sanguinalis. Conditions: Digitaria sanguinalis, 504 h, dosage 320 g/ha, visual rating about 3 weeks after treatment vs untreated controls (100% = plants died).
Source text: as §2

Experiment [8] concerns DIGSA. As to the kind of experiment: Pre-emergence action at 320 g/ha against DIGSA. The class given is in vivo, Digitaria sanguinalis. Conditions: Digitaria sanguinalis, 504 h, visual scoring after about 3 weeks vs untreated controls. The procedure, abridged:
as §1

The subject of experiment [9] is SETVI. Kind of experiment: Post-emergence action at 320 g/ha against SETVI. It is filed as in vivo, Setaria viridis. The following applies: visual rating about 3 weeks after treatment vs untreated controls.
Source text: as §2

Experiment [10] deals with AVEFA. Kind of experiment: Post-emergence action at 320 g/ha against AVEFA. The class given is in vivo. The following applies: Avena fatua, 504 h, visual rating about 3 weeks after treatment vs untreated controls.
Source text: as §2

Experiment [11] concerns POLCO. As to the kind of experiment: Pre-emergence action at 320 g/ha against POLCO. The class given is in vivo, Fallopia convolvulus (Polygonum convolvulus). Conditions: Fallopia convolvulus, 504 h, visual scoring after about 3 weeks vs untreated controls. Put shortly: as §1
In experiment [12] the test system is AMARE. As to the kind of experiment: Post-emergence action at 320 g/ha against AMARE. It is filed as in vivo, Amaranthus retroflexus. The following applies: Amaranthus retroflexus, 504 h, visual rating about 3 weeks after treatment vs untreated controls.
Source text: as §2

The test system of experiment [13] is MATIN. Kind of experiment: Pre-emergence action at 320 g/ha against MATIN. It is filed as in vivo, Tripleurospermum inodorum (Matricaria inodora). The following applies: Tripleurospermum inodorum, 504 h, visual scoring after about 3 weeks vs untreated controls. The procedure, abridged: as §1
For experiment [14], the system named is VIOTR. As to the kind of experiment: Pre-emergence action at 320 g/ha against VIOTR. It is filed as in vivo, Viola tricolor. Conditions: Viola tricolor, 504 h, dosage 320 g/ha. The procedure, abridged:
as §1

The subject of experiment [15] is VIOTR. Kind of experiment: Post-emergence action at 320 g/ha against VIOTR. Conditions: Viola tricolor, 504 h, visual rating about 3 weeks after treatment vs untreated controls. The class given is in vivo, Viola tricolor.
Source text: as §2

For experiment [16], the system named is ALOMY. As to the kind of experiment: Pre-emergence action at 320 g/ha against ALOMY. It is filed as in vivo, Alopecurus myosuroides. The following applies: Alopecurus myosuroides, 504 h, scored visually after about 3 weeks vs untreated controls (100% = plants have died). The procedure, abridged:
as §1

Molecules are shown by their SMILES.

In the case of `COC(=O)[C@@H](C)Oc1nn(-c2ccccc2F)c(-c2ccc(F)nc2)c1Br` [VII-004, Methyl (2R)-2-{[4-bromo-1-(2-fluorophenyl)-5-(6-fluoropyridin-3-yl)-1H-pyrazol-3-yl]oxy}propanoate], the pest or weed control at 320 g/ha was 100% in experiment [1]; 80% in experiment [3]; 90% in experiment [4]; 80% in [6]; 90% in experiment [7]; 100% in experiment [8]. In addition, the pest or weed control at 320 g/ha in [10] was 90%; in experiment [11], 90%; in [12], 90%; in [13], 80%; in experiment [14] it was 100%; in experiment [15] it was 90%. Further, the pest or weed control at 320 g/ha in experiment [16] was 90%. The “Post-emergence action at 320 g/ha against ECHCG in %” value in experiment [2] came out at 90%. In addition, the “Post-emergence action against ALOMY” value in experiment [5] came to 90%. The “Post-emergence action against SETVI in %” value in [9] came out at 90%.

A word on the pest or weed control: it is how far the test organism was held down. Read a low pest or weed control as a weak effect.

Source of the values: patent publication US12180187B2, “1-phenyl-5-azinylpyrazolyl-3-oxyalkyl acids and their use for controlling unwanted plant growth” (BAYER AKTIENGESELLSCHAFT, priority 2019, dated 2024).
